From ChEMBL document CHEMBL1201862, “PubChem BioAssay data set” (2004)
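Grown in 96-well plates, cells were treated for 48 hours with each compound at five concentrations. Insufficient inhibition: endpoint recorded as highest concentration tested. GI50: concentration for 50% inhibition of growth.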 Active and inactive are the calls of the source. Rule as the data show it: active = GI50 up to about 1.1 µM and inactive = higher. Square brackets hold non-standard residues; d marks the D form. Peptide text beside a SMILES is read from it. * marks the point of attachment. ξ: configuration not given here. Propanoyl(3-(4-MeO-Ph)) = COc1ccc(CCC(=O)*)cc1; Thr(3ξ) = CC(O)[C@H](N)C(=O)O; dNMeL = CN[C@H](CC(C)C)C(=O)O; ξLac = CC(O)C(=O)O

Experiments:
Experiment in all cases: DTP human tumour cell line panel, 48 h
[1] = system: Hs-578T
[2] = system: OVCAR-5
[3] = system: UO-31
[4] = system: SNB-19
[5] = system: MDA-MB-435
[6] = system: EKVX
[7] = system: CCRF-CEM
[8] = system: HL-60
[9] = system: SK-MEL-2
[10] = system: SF-268
[11] = system: A549
[12] = system: CAKI-1
[13] = system: OVCAR-3
[14] = system: NCI/ADR-RES
[15] = system: SR
[16] = system: SW-620
[17] = system: OVCAR-8
[18] = system: ACHN
[19] = system: UACC-257

| SMILES | GI50 [1] | GI50 [2] | GI50 [3] | GI50 [4] | GI50 [5] | GI50 [6] | GI50 [7] | GI50 [8] | GI50 [9] | GI50 [10] | GI50 [11] | GI50 [12] | GI50 [13] | GI50 [14] | GI50 [15] | GI50 [16] | GI50 [17] | GI50 [18] | GI50 [19] |
| --- | --- | --- | --- | --- | --- | --- | --- | --- | --- | --- | --- | --- | --- | --- | --- | --- | --- | --- | --- |
| Cc1cc(/N=C/c2ccc(F)cc2)n(-c2ccccc2)n1 | > 100 µM (inactive) | > 100 µM (inactive) | > 100 µM (inactive) | > 100 µM (inactive) | 74.1 µM (inactive) | 66.7 µM (inactive) | 34.6 µM (inactive) | 30.3 µM (inactive) | > 100 µM (inactive) | > 100 µM (inactive) | 92 µM (inactive) | > 100 µM (inactive) | > 100 µM (inactive) | > 100 µM (inactive) | 35.4 µM (inactive) | > 100 µM (inactive) | > 100 µM (inactive) | > 100 µM (inactive) | 50.1 µM (inactive) |
| CC(=O)NNc1nc(C)c(C(/C=C/c2ccc3c(c2)OCO3)=N/NC(=O)c2ccncc2)s1 | > 100 µM (inactive) | > 100 µM (inactive) | > 100 µM (inactive) | > 100 µM (inactive) | > 100 µM (inactive) | 62.5 µM (inactive) | > 100 µM (inactive) | > 100 µM (inactive) | > 100 µM (inactive) | > 100 µM (inactive) | > 100 µM (inactive) | > 100 µM (inactive) | > 100 µM (inactive) | > 100 µM (inactive) | > 100 µM (inactive) | > 100 µM (inactive) | > 100 µM (inactive) | > 100 µM (inactive) | > 100 µM (inactive) |
| O=[N+]([O-])c1cc(Cl)ccc1S(=O)(=O)c1cc(Cl)cc2c1NCCC2 | 95.1 µM (inactive) | > 100 µM (inactive) | 49.5 µM (inactive) | > 100 µM (inactive) | 39.6 µM (inactive) | 85.7 µM (inactive) | 26.4 µM (inactive) | 98.4 µM (inactive) | > 100 µM (inactive) | 82.4 µM (inactive) | 52 µM (inactive) | 66.7 µM (inactive) | 62.7 µM (inactive) | 71.4 µM (inactive) | 53.5 µM (inactive) | > 100 µM (inactive) | 56.6 µM (inactive) | 40.9 µM (inactive) | 22.4 µM (inactive) |
| COC(=O)[C@@H](NC(=O)[C@@H](CC(C)C)N(C)C(=O)[C@@H]1CCCN1C(=O)C(C)O)C(C)OC(=O)CCc1ccc(OC)cc1 (stereo not given in full) (H-[ξLac]P[dNMeL][Thr(3ξ)](Propanoyl(3-(4-MeO-Ph)))-OMe) | > 100 µM (inactive) | > 100 µM (inactive) | > 100 µM (inactive) | > 100 µM (inactive) | > 100 µM (inactive) | > 100 µM (inactive) | > 100 µM (inactive) | > 100 µM (inactive) | > 100 µM (inactive) | > 100 µM (inactive) | > 100 µM (inactive) | > 100 µM (inactive) | > 100 µM (inactive) | > 100 µM (inactive) | > 100 µM (inactive) | > 100 µM (inactive) | > 100 µM (inactive) | > 100 µM (inactive) | > 100 µM (inactive) |
| COc1ccc(C2N(c3ccc(F)c([N+](=O)[O-])c3)C(=O)N3C(c4ccc(OC)cc4)N(c4ccc(F)c([N+](=O)[O-])c4)C(=O)N23)cc1 (stereo not given) | > 100 µM (inactive) | > 100 µM (inactive) | > 100 µM (inactive) | > 100 µM (inactive) | > 100 µM (inactive) | > 100 µM (inactive) | > 100 µM (inactive) | > 100 µM (inactive) | > 100 µM (inactive) | > 100 µM (inactive) | > 100 µM (inactive) | > 100 µM (inactive) | > 100 µM (inactive) | > 100 µM (inactive) | > 100 µM (inactive) | > 100 µM (inactive) | > 100 µM (inactive) | > 100 µM (inactive) | > 100 µM (inactive) |
| CC(C)(CN)CN | > 100 µM (inactive) | > 100 µM (inactive) | > 100 µM (inactive) | > 100 µM (inactive) | > 100 µM (inactive) | > 100 µM (inactive) | > 100 µM (inactive) | > 100 µM (inactive) | > 100 µM (inactive) | > 100 µM (inactive) | > 100 µM (inactive) | > 100 µM (inactive) | > 100 µM (inactive) | > 100 µM (inactive) | > 100 µM (inactive) | > 100 µM (inactive) | > 100 µM (inactive) | > 100 µM (inactive) | > 100 µM (inactive) |
| C[C@]12CC(c3ccccc3O1)C(C#N)C(=O)N2 (stereo not given in full) | > 100 µM (inactive) | > 100 µM (inactive) |  | > 100 µM (inactive) | > 100 µM (inactive) | > 100 µM (inactive) | > 100 µM (inactive) | > 100 µM (inactive) | > 100 µM (inactive) | > 100 µM (inactive) | > 100 µM (inactive) | > 100 µM (inactive) | > 100 µM (inactive) | > 100 µM (inactive) | > 100 µM (inactive) | > 100 µM (inactive) | > 100 µM (inactive) | > 100 µM (inactive) | > 100 µM (inactive) |
| Nc1nc(Cl)cc(NCC2(O)CCC2)n1 | > 100 µM (inactive) | > 100 µM (inactive) | 56.5 µM (inactive) |  | > 100 µM (inactive) | > 100 µM (inactive) | > 10 µM (inactive) | > 100 µM (inactive) | > 100 µM (inactive) | > 100 µM (inactive) | > 100 µM (inactive) | > 100 µM (inactive) | > 100 µM (inactive) | > 100 µM (inactive) | > 100 µM (inactive) | > 100 µM (inactive) | > 100 µM (inactive) | > 100 µM (inactive) | > 100 µM (inactive) |
| c1cc(NC2=NCCO2)c2c(c1)OCO2 | > 100 µM (inactive) | > 100 µM (inactive) | > 100 µM (inactive) | > 100 µM (inactive) | > 100 µM (inactive) | > 100 µM (inactive) | > 100 µM (inactive) | > 100 µM (inactive) | > 100 µM (inactive) | > 100 µM (inactive) | > 100 µM (inactive) | > 100 µM (inactive) | > 100 µM (inactive) | > 100 µM (inactive) | > 100 µM (inactive) | > 100 µM (inactive) | > 100 µM (inactive) | > 100 µM (inactive) | > 100 µM (inactive) |
| COc1ccc(Br)c(/C=N\c2cccc3cc(OC)c(OC)cc23)c1 | 5.21 µM (inactive) | 72.1 µM (inactive) | 21.5 µM (inactive) | 13.2 µM (inactive) | 2.8 µM (inactive) | 97.1 µM (inactive) | 2.82 µM (inactive) | 0.865 µM (active) | 42.3 µM (inactive) | 7 µM (inactive) | > 91.2 µM (inactive) | > 82.4 µM (inactive) | 9.12 µM (inactive) | 16.8 µM (inactive) | 2.42 µM (inactive) | 7.08 µM (inactive) | 6.28 µM (inactive) | 25.5 µM (inactive) | 69.8 µM (inactive) |
| NNC(=O)CC(=O)Nc1ccc(Cl)cc1 | > 100 µM (inactive) | > 100 µM (inactive) | > 100 µM (inactive) | > 100 µM (inactive) | > 100 µM (inactive) | > 100 µM (inactive) | > 100 µM (inactive) | > 100 µM (inactive) | > 100 µM (inactive) | > 100 µM (inactive) | > 100 µM (inactive) | > 100 µM (inactive) | > 100 µM (inactive) | > 100 µM (inactive) | > 100 µM (inactive) | > 100 µM (inactive) | > 100 µM (inactive) | 66.7 µM (inactive) | > 100 µM (inactive) |
| c1ccc(CSc2nc(N3CCCCC3)c3cn[nH]c3n2)cc1 | 17.3 µM (inactive) | 27.9 µM (inactive) | 16.6 µM (inactive) | 25.2 µM (inactive) | 22.4 µM (inactive) | 20.3 µM (inactive) | 44 µM (inactive) | 13.3 µM (inactive) | 16.2 µM (inactive) | 23.8 µM (inactive) | 27.4 µM (inactive) | 29.6 µM (inactive) | 24.5 µM (inactive) | 61.2 µM (inactive) | 25.3 µM (inactive) | 19.9 µM (inactive) | 23.4 µM (inactive) | 27.2 µM (inactive) | 18 µM (inactive) |
| COc1cc2nc3n(c(=O)c2cc1OC)CCCCC3 | > 100 µM (inactive) | > 100 µM (inactive) | > 100 µM (inactive) |  | > 100 µM (inactive) | > 100 µM (inactive) | 94.2 µM (inactive) | > 100 µM (inactive) | > 100 µM (inactive) | > 100 µM (inactive) | > 100 µM (inactive) | > 100 µM (inactive) | > 100 µM (inactive) | > 100 µM (inactive) | > 100 µM (inactive) | > 100 µM (inactive) | > 100 µM (inactive) | > 100 µM (inactive) | > 100 µM (inactive) |
| N#Cc1c(-c2ccc(Cl)cc2)cc(-c2ccc(Nc3ccnc4cc(C(F)(F)F)ccc34)cc2)[nH]c1=O | 20 µM (inactive) | > 40.5 µM (inactive) |  | 9.73 µM (inactive) | 3.33 µM (inactive) | > 100 µM (inactive) | 3.7 µM (inactive) | 10.8 µM (inactive) | 57.4 µM (inactive) | > 66.4 µM (inactive) | > 100 µM (inactive) | > 43.4 µM (inactive) | 8.26 µM (inactive) | > 100 µM (inactive) | 2.72 µM (inactive) | 14 µM (inactive) | 38.3 µM (inactive) | > 100 µM (inactive) | 37.2 µM (inactive) |
| COc1ccc(\N=C/C=C/C(=C/COC(C)=O)OC(C)=O)cc1 | 62.8 µM (inactive) | 40.5 µM (inactive) |  | 58.6 µM (inactive) | 18.8 µM (inactive) | 51.8 µM (inactive) | 4.56 µM (inactive) | 19.1 µM (inactive) | 16.7 µM (inactive) | 31 µM (inactive) | 90.6 µM (inactive) | 23.6 µM (inactive) | 20.7 µM (inactive) | 39.3 µM (inactive) | 39.4 µM (inactive) | 10.2 µM (inactive) | 14.4 µM (inactive) | 17.3 µM (inactive) | 27.4 µM (inactive) |
